According to ChEMBL document CHEMBL1130023, “Conformationally constrained [p-(omega-aminoalkyl)phenacetyl]-L-seryl-L-lysyl dipeptide amides as potent peptidomimetic inhibitors of Candida albicans and human myristoyl-CoA:protein N-myristoyl transferase” (J Med Chem, 1997):
Non-standard residues stand in square brackets, D forms with d. Residues, ends and D or L forms follow the SMILES beside them. *: point of attachment. Cha = N[C@@H](CC1CCCCC1)C(=O)O; Chg = N[C@H](C(=O)O)C1CCCCC1; NHPhenethyl = c1ccc(CCN*)cc1; 12Ado = NCCCCCCCCCCCC(=O)O; Aun = NCCCCCCCCCCC(=O)O; Ahp = NCCCCCCC(=O)O; βAla = NCCC(=O)O; Sar = CNCC(=O)O

Tests used:
[1] = Ratio of the IC50 against human NMT to the IC50 against Candida albicans NMT.
[2] = target: T1, Glycylpeptide N-tetradecanoyltransferase (Candida albicans (strain SC5314 / ATCC MYA-2876) (Yeast), UniProt P30418); experiment: Inhibitory activity against N-myristoyltransferase (NMT) of candida albicans
T1 sequence (P30418 whole entry): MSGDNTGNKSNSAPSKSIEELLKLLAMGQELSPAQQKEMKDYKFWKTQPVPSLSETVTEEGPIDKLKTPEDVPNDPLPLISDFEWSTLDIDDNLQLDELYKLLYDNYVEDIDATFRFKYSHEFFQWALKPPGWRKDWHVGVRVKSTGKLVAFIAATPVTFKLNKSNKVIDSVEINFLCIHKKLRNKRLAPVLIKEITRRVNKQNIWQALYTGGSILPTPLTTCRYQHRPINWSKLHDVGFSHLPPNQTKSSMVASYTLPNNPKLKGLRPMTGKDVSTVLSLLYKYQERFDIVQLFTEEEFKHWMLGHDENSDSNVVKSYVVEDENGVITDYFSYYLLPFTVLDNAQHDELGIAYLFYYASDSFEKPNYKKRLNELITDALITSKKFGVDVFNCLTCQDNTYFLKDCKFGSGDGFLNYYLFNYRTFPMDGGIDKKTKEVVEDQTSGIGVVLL

[3] = target: T2, Peptide N-myristoyltransferase (Homo sapiens, UniProt P30419+O60551); experiment: Inhibition of human N-myristoyltransferase (NMT); format: protein assay
T2 sequence (P30419 whole entry): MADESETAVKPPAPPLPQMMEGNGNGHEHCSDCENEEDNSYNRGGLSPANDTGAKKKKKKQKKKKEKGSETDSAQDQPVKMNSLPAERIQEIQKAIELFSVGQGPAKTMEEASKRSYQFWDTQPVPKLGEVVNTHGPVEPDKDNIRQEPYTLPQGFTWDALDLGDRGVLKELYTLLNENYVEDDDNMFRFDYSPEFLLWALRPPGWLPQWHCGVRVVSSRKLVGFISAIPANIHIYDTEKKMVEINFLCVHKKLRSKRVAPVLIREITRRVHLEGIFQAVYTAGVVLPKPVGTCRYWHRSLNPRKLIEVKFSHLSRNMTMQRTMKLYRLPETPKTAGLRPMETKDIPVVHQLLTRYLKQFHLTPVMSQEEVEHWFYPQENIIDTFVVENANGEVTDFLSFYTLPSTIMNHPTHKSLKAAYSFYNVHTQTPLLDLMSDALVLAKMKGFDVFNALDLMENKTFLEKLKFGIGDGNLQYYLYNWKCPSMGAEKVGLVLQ
T2 sequence (O60551 whole entry): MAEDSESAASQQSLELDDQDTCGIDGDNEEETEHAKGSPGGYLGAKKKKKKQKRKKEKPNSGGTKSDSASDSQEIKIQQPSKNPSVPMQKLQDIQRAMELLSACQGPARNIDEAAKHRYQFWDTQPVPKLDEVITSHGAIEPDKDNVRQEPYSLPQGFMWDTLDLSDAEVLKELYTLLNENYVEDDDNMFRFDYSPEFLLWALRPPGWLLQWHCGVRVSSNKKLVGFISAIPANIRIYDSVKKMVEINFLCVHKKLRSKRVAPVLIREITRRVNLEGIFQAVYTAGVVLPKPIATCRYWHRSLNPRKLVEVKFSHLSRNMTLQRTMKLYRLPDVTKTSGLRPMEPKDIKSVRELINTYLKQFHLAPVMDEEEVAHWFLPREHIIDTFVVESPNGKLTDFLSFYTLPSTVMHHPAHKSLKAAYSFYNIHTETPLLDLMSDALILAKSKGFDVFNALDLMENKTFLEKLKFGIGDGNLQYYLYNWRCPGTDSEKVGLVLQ

[4] = target: Glycylpeptide N-tetradecanoyltransferase (Candida albicans) (UniProt P30418); experiment: The binding affinity was evaluated towards N-myristoyltransferase (NMT) in the presence of the peptide substrate GNAASARR-NH2
[5] = target: T2, Peptide N-myristoyltransferase; experiment: The binding affinity was evaluated against the acyl transferase's peptide, N-myristoyltransferase binding site; format: protein assay

Molecule	IC50 [2] [µM]	other results
NCCCCCCCCCCC(=O)N[C@@H](CO)C(=O)N[C@@H](CCCCN)C(=O)NCCCC1CCCCCCC1	0.3	Ratio [1]: 3.8; IC50 [3]: 1.14 µM
NCCCC[C@H](NC(=O)[C@H](CO)NC(=O)Cc1ccc(CCc2ccc(CN)cc2)cc1)C(=O)NCCC1CCCCC1	0.75	Ratio [1]: 83; IC50 [3]: 62 µM
NCCCCCCc1ccc(CC(=O)N[C@@H](CO)C(=O)N[C@@H](CCCCN)C(=O)NCCC2CCCCC2)cc1	0.11	Ratio [1]: 7.3; IC50 [3]: 0.8 µM; Ki [4]: 0.06 µM
CC[C@H](C)[C@H](NC(=O)[C@H](CCCCN)NC(=O)[C@H](CO)NC(=O)CCCCCCCCCCN)C(N)=O (H-[Aun]SKI-NH2)	3.9	–
NCCCCCCCCCCC(=O)N[C@@H](CO)C(=O)N[C@@H](CCCCN)C(=O)N[C@@H](CC1CCCCC1)C(N)=O (H-[Aun]SK[Cha]-NH2)	0.36	–
CC(C)C[C@H](NC(=O)[C@H](CCCCN)NC(=O)[C@H](CO)NC(=O)CCCCCCCCCCN)C(N)=O (stereo in doubt)	> 1000	–
CNCCCCCCCCCCC(=O)N[C@@H](CO)C(=O)N[C@@H](CCCCN)C(=O)N[C@@H](CC(C)C)C(=O)OC	0.35	–
CC(C)[C@H](NC(=O)[C@H](CCCCN)NC(=O)[C@H](CO)NC(=O)CCCCCCCCCCN)C(N)=O (H-[Aun]SKV-NH2)	19	–
NCCCCCCCCCCC(=O)N[C@@H](CO)C(=O)N[C@@H](CCCCN)C(=O)NCCCC1CCCCC1	1.3	–
CC(C)C[C@H](NC(=O)[C@H](CCCCN)NC(=O)[C@H](CO)NC(=O)CCCCCCCCCCN)C(N)=O (stereo in doubt; 3a)	1.2	–
CC(C(=O)N[C@@H](CO)C(=O)N[C@@H](CCCCN)C(=O)NCCC1CCCCC1)c1ccc(CCCCCCN)cc1 (stereo not given in full)	0.043	Ratio [1]: 18; IC50 [3]: 0.79 µM
CNCC(=O)N[C@@H](CC(C)C)C(=O)N[C@@H](Cc1ccc(O)cc1)C(=O)N(C)CC(=O)N[C@@H](CO)C(=O)N[C@@H](CCCCN)C(=O)N[C@@H](CC(C)C)C(=O)N[C@@H](CO)C(N)=O (H-[Sar]LY[Sar]SKLS-NH2)	80	–
NCCCCCCCCCCC(=O)N[C@@H](CO)C(=O)N[C@@H](CCCCN)C(=O)NCCc1ccccc1 (H-[Aun]-Ser-Lys-NHPhenethyl)	5	–
CC(C)C[C@H](NC(=O)CCN)C(=O)N[C@@H](Cc1ccc(O)cc1)C(=O)N[C@@H](C)C(=O)N[C@@H](CO)C(=O)N[C@@H](CCCCN)C(=O)N[C@@H](CC(C)C)C(=O)N[C@@H](CO)C(N)=O (H-[βAla]LYASKLS-NH2)	110	–
NCCCCCCCCc1ccc(CC(=O)N[C@@H](CO)C(=O)N[C@@H](CCCCN)C(=O)NCCC2CCCCC2)cc1	0.75	Ratio [1]: 70; IC50 [3]: 53 µM
CC(C)(C)CCNC(=O)[C@H](CCCCN)NC(=O)[C@H](CO)NC(=O)CCCCCCCCCCN	1.2	–
NCCCC[C@H](NC(=O)[C@H](CO)NC(=O)CCCCC#Cc1ccc(CN)cc1)C(=O)NCCC1CCCCC1	0.17	Ratio [1]: 4.5; IC50 [3]: 0.76 µM
NCCCC[C@H](NC(=O)[C@H](CO)NC(=O)Cc1ccc(C#Cc2ccc(CN)cc2)cc1)C(=O)NCCC1CCCCC1	> 10	–

Molecule	IC50 [2] [µM]	other results
CC(C)CNC(=O)[C@H](CCCCN)NC(=O)[C@H](CO)NC(=O)CCCCCCCCCCN	> 10	–
H-ALYASKLS-NH2	–	Ki app [5]: 15.3 µM
COC(=O)[C@H](CC(C)C)NC(=O)[C@H](CCCCN)NC(=O)[C@H](CO)NC(=O)CCCCCCN (H-[Ahp]SKL-OMe)	> 100	–
C[C@H](NC(=O)[C@H](CCCCN)NC(=O)[C@H](CO)NC(=O)CCCCCCCCCCN)C(N)=O (H-[Aun]SKA-NH2)	16	–
NCCCCCCCCCCC(=O)N[C@@H](CO)C(=O)N[C@@H](CCCCN)C(=O)NCC(N)=O (H-[Aun]SKG-NH2)	16	–
COC(=O)[C@H](CC(C)C)NC(=O)[C@H](CCCCN)NC(=O)[C@H](CO)NC(=O)CCCCCCCCCCN (H-[Aun]SKL-OMe)	0.6	–
NCCCCCCCCCCC(=O)N[C@@H](CO)C(=O)N[C@@H](CCCCN)C(=O)N[C@@H](Cc1ccccc1)C(N)=O (H-[Aun]SKF-NH2)	8.2	–
COC(=O)[C@H](CC(C)C)NC(=O)[C@H](CCCCN)NC(=O)[C@H](CO)NC(=O)CCCCCCCCCCCN (H-[12Ado]SKL-OMe)	0.27	–
COC(=O)[C@H](CC(C)C)NC(=O)[C@H](CCCCN)NC(=O)[C@H](CO)NC(=O)CCCCCCCCCN	0.3	–
NCCCCCc1ccc(CC(=O)N[C@@H](CO)C(=O)N[C@@H](CCCCN)C(=O)NCCC2CCCCC2)cc1	0.19	Ratio [1]: 5.2; IC50 [3]: 0.99 µM
CC(C)CCNC(=O)[C@@H](CCCCN)NC(=O)[C@@H](CO)NC(=O)CCCCCCCCCCN	365	–
NCCCC[C@H](NC(=O)[C@H](CO)NC(=O)CCCCCCc1ccc(CN)cc1)C(=O)NCCC1CCCCC1	0.34	Ratio [1]: 4.4; IC50 [3]: 1.5 µM
CC(C)CCNC(=O)[C@H](CCCCN)NC(=O)[C@H](CO)NC(=O)CCCCCCCCCCN	0.78	Ratio [1]: 0.5
COC(=O)[C@H](CC(C)C)NC(=O)[C@H](CCCCN)NC(=O)[C@H](CO)NC(=O)CCCCCCCCCCN(C)C	0.69	–
COC(=O)[C@H](CC(C)C)NC(=O)[C@H](CCCCN)NC(=O)[C@H](CO)NC(=O)CCCCCCCCN	5.2	–
NCCCCCc1cccc(CC(=O)N[C@@H](CO)C(=O)N[C@@H](CCCCN)C(=O)NCCC2CCCCC2)c1	0.52	Ratio [1]: 3.5; IC50 [3]: 1.8 µM
NCCCCCCCCCCC(=O)N[C@@H](CO)C(=O)N[C@@H](CCCCN)C(=O)N[C@H](C(N)=O)C1CCCCC1 (H-[Aun]SK[Chg]-NH2)	0.76	–
